Experimental data taken from PubChem BioAssay (NCI).
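Protocol summary: plate cells (96-well), add compound at 5 concentrations, incubate 48 h, interpolate endpoints linearly. Abbreviation: GI50, concentration required for 50% inhibition of growth. At the TGI there is no net growth.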

Legend:
Experiment in all cases: NCI anticancer screen, dose series, 48 h
NCI-H23 lung = tested on: NCI-H23 lung
UACC-62 melanoma = tested on: UACC-62 melanoma
MCF7 breast = tested on: MCF7 breast
HOP-62 NSCLC = tested on: HOP-62 NSCLC
HT29 colon = tested on: HT29 colon
SK-MEL-2 melanoma = tested on: SK-MEL-2 melanoma
IGROV1 ovarian = tested on: IGROV1 ovarian
UO-31 renal = tested on: UO-31 renal
HL-60(TB) leukemia = tested on: HL-60(TB) leukemia
A549 NSCLC = tested on: A549 NSCLC
NCI/ADR-RES ovarian = tested on: NCI/ADR-RES ovarian
MDA-MB-231 breast = tested on: MDA-MB-231 breast
M14 melanoma = tested on: M14 melanoma
LOX IMVI melanoma = tested on: LOX IMVI melanoma
OVCAR-8 ovarian = tested on: OVCAR-8 ovarian
SK-OV-3 ovarian = tested on: SK-OV-3 ovarian
SW-620 colon = tested on: SW-620 colon
SR leukemia = tested on: SR leukemia
EKVX NSCLC = tested on: EKVX NSCLC
CAKI-1 renal = tested on: CAKI-1 renal
HCC-2998 colon = tested on: HCC-2998 colon
NCI-H226 lung = tested on: NCI-H226 lung
SNB-19 CNS = tested on: SNB-19 CNS
UACC-257 melanoma = tested on: UACC-257 melanoma
OVCAR-4 ovarian = tested on: OVCAR-4 ovarian
HOP-92 NSCLC = tested on: HOP-92 NSCLC
RPMI-8226 leukemia = tested on: RPMI-8226 leukemia
SK-MEL-28 melanoma = tested on: SK-MEL-28 melanoma
OVCAR-3 ovarian = tested on: OVCAR-3 ovarian
OVCAR-5 ovarian = tested on: OVCAR-5 ovarian
SNB-75 CNS = tested on: SNB-75 CNS
SF-539 CNS = tested on: SF-539 CNS
SF-268 CNS = tested on: SF-268 CNS
K-562 leukemia = tested on: K-562 leukemia
U251 CNS = tested on: U251 CNS
CCRF-CEM leukemia = tested on: CCRF-CEM leukemia
ACHN renal = tested on: ACHN renal
MDA-MB-435 = tested on: MDA-MB-435
TK-10 renal = tested on: TK-10 renal
SK-MEL-5 melanoma = tested on: SK-MEL-5 melanoma
KM12 colon = tested on: KM12 colon
HCT-15 colon = tested on: HCT-15 colon
MALME-3M melanoma = tested on: MALME-3M melanoma
786-0 renal = tested on: 786-0 renal
SF-295 CNS = tested on: SF-295 CNS
RXF 393 renal = tested on: RXF 393 renal
PC-3 prostate = tested on: PC-3 prostate
HS 578T breast = tested on: HS 578T breast
COLO 205 colon = tested on: COLO 205 colon
A498 renal = tested on: A498 renal
DU-145 prostate = tested on: DU-145 prostate
HCT-116 colon = tested on: HCT-116 colon

Q: Which results are given for `Cc1ccc(/C=C2\CN(C(=O)C(Cl)Cl)C/C(=C\c3ccc(C)cc3)C2=O)cc1`?
A: GI50 (NCI-H23 lung): 221 nM; TGI (NCI-H23 lung): 478 nM; GI50 (UACC-62 melanoma): 237 nM; TGI (UACC-62 melanoma): 632 nM; GI50 (MCF7 breast): 54.6 nM; TGI (MCF7 breast): 836 nM; GI50 (HOP-62 NSCLC): 298 nM; TGI (HOP-62 NSCLC): 1280 nM; GI50 (HT29 colon): 241 nM; GI50 (SK-MEL-2 melanoma): 1800 nM; TGI (SK-MEL-2 melanoma): 5500 nM; GI50 (IGROV1 ovarian): 180 nM; TGI (IGROV1 ovarian): 367 nM; GI50 (UO-31 renal): 158 nM; TGI (UO-31 renal): 308 nM; GI50 (HL-60(TB) leukemia): 250 nM; TGI (HL-60(TB) leukemia): 1330 nM; GI50 (A549 NSCLC): 293 nM; GI50 (NCI/ADR-RES ovarian): 341 nM; GI50 (MDA-MB-231 breast): 337 nM; TGI (MDA-MB-231 breast): 1570 nM; GI50 (M14 melanoma): 261 nM; TGI (M14 melanoma): 784 nM; GI50 (LOX IMVI melanoma): 62.1 nM; TGI (LOX IMVI melanoma): 199 nM; GI50 (OVCAR-8 ovarian): 357 nM; TGI (OVCAR-8 ovarian): > 100000 nM; GI50 (SK-OV-3 ovarian): 1000 nM; TGI (SK-OV-3 ovarian): > 100000 nM; GI50 (SW-620 colon): 55.4 nM; TGI (SW-620 colon): 234 nM; GI50 (SR leukemia): 110 nM; TGI (SR leukemia): > 100000 nM; GI50 (EKVX NSCLC): 348 nM; TGI (EKVX NSCLC): 2310 nM; GI50 (CAKI-1 renal): 273 nM; TGI (CAKI-1 renal): 1010 nM; GI50 (HCC-2998 colon): 176 nM; TGI (HCC-2998 colon): 330 nM; GI50 (NCI-H226 lung): 245 nM; TGI (NCI-H226 lung): 622 nM; GI50 (SNB-19 CNS): 286 nM; TGI (SNB-19 CNS): 1030 nM; GI50 (UACC-257 melanoma): 346 nM; TGI (UACC-257 melanoma): 3160 nM; GI50 (OVCAR-4 ovarian): 322 nM; TGI (OVCAR-4 ovarian): > 100000 nM; GI50 (HOP-92 NSCLC): 1470 nM; TGI (HOP-92 NSCLC): 3950 nM; GI50 (RPMI-8226 leukemia): 32.2 nM; TGI (RPMI-8226 leukemia): 484 nM; GI50 (SK-MEL-28 melanoma): 319 nM; TGI (SK-MEL-28 melanoma): 1190 nM; GI50 (OVCAR-3 ovarian): 209 nM; TGI (OVCAR-3 ovarian): 483 nM; GI50 (OVCAR-5 ovarian): 333 nM; TGI (OVCAR-5 ovarian): 1460 nM; GI50 (SNB-75 CNS): 573 nM; TGI (SNB-75 CNS): 2900 nM; GI50 (SF-539 CNS): 227 nM; TGI (SF-539 CNS): 567 nM; GI50 (SF-268 CNS): 331 nM; TGI (SF-268 CNS): 2430 nM; GI50 (K-562 leukemia): 142 nM; TGI (K-562 leukemia): > 100000 nM; GI50 (U251 CNS): 143 nM; TGI (U251 CNS): 334 nM; GI50 (CCRF-CEM leukemia): 110 nM; TGI (CCRF-CEM leukemia): > 100000 nM; GI50 (ACHN renal): 244 nM; TGI (ACHN renal): 620 nM; GI50 (MDA-MB-435): 197 nM; TGI (MDA-MB-435): 408 nM; GI50 (TK-10 renal): 570 nM; TGI (TK-10 renal): 6040 nM; GI50 (SK-MEL-5 melanoma): 445 nM; TGI (SK-MEL-5 melanoma): 1530 nM; GI50 (KM12 colon): 193 nM; TGI (KM12 colon): 480 nM; GI50 (HCT-15 colon): 185 nM; TGI (HCT-15 colon): 638 nM; GI50 (MALME-3M melanoma): 350 nM; TGI (MALME-3M melanoma): 2040 nM; GI50 (786-0 renal): 194 nM; TGI (786-0 renal): 397 nM; GI50 (SF-295 CNS): 223 nM; TGI (SF-295 CNS): 665 nM; GI50 (RXF 393 renal): 216 nM; TGI (RXF 393 renal): 507 nM; GI50 (PC-3 prostate): 209 nM; TGI (PC-3 prostate): 672 nM; GI50 (HS 578T breast): 343 nM; TGI (HS 578T breast): 3710 nM; GI50 (COLO 205 colon): 241 nM; TGI (COLO 205 colon): 695 nM; GI50 (A498 renal): 203 nM; TGI (A498 renal): 790 nM; GI50 (DU-145 prostate): 326 nM; TGI (DU-145 prostate): 1280 nM; GI50 (HCT-116 colon): 65.4 nM; TGI (HCT-116 colon): 194 nM
